Data published in patent US4350699A, “Pyridylalkoxysulfinyl derivatives of carbamate esters” (priority 1981, dated 1982).

Tests used:
[1] = system: Mice; assay: in vivo; conditions: compared with parent carbamate (methomyl or MIP)
Procedure: (§1) Representative compounds of the pyridylalkoxysulfinyl derivatives of carbamate esters of the invention were tested for insecticidal activity against house flies and tobacco cutworms, and for mammalian toxicity against mice.
(§2) Mammalian toxicity was determined against Swiss white mice. The test compound was applied orally using propylene glycol as the carrier.

[2] = system: tobacco cutworms; assay: test against tobacco cutworms (3rd instar larvae), cabbage leaf dip, mortality counted 72 hours after the treatment; format: in vivo; conditions: for mortality at 100 ppm / mortality at 500 ppm: foliar, leaf dip, 72 hours
Procedure: In the test against tobacco cutworms, aqueous solutions containing each toxicant at 100 and 500 ppm and an emulsifying agent, Shingramin, at 0.03% were prepared. The composition of Shingramin is understood to consist of 20% of polyoxyethylene dodecyl ether and polyoxyethylene alkylaryl ether, 12% ligninsulfonates and 68% inert solvents, by weight. A cabbage leaf was dipped into each of these solutions for 30 seconds, and put in a paper cup of 8 cm diameter. Ten tobacco cutworms (3rd instar larvae) were released onto the leaf. Two leaves were used for each dilution. Mortality of the insects was counted 72 hours after the treatment.

[3] = system: House Flies; conditions: for House Flies LD50: topical on the notum, 1 μl acetone solution, 24 hours; for toxicity against house flies (in words): judged from LD50 of Table I
Procedure: as §1
In the test for houseflies, stock 1% concentrated solutions of each of the test compounds and the commercially related carbamate ester insecticide, methomyl, were made in acetone, and such solutions were diluted with acetone to a concentration of 0.001-0.1%. House flies were treated topically on the notum by 1 μl of each of the diluted acetone solutions and percent mortality was counted 24 hours after application.

[4] = in vivo; conditions: mouse, in vivo, po
Procedure: as §1, §2

Row | SMILES | mammalian toxicity (in words) [1] | mortality at 100 ppm [2] [%] | mortality at 500 ppm [2] [%] | House Flies LD50 [3] [µg/g] | LD50 [4] [mg/kg] | potency for tobacco cutworms (in words) ([2]; compared with methomyl) | toxicity against house flies (in words) [3]
1 | CNC(=O)ON=C(C)SC [methomyl, reference compound] | much higher toxicity | 100 | 100 | 3.7 |  |  | 
2 | CNC(=O)Oc1cccc(C(C)C)c1 [MIP, reference compound] | much higher mammalian toxicity |  |  |  |  |  | 
3 | CSC(C)=NOC(=O)N(C)S(=O)OCc1ccccn1 (stereo not shown) [I, S-methyl N-[N'-methyl-N'-(2-pyridylmethoxy)-sulfinylcarbamoyloxy] thioacetimidate] | low | 5 | 65 | 7.0 | 85 | not as potent as methomyl | good toxicity
4 | CSC(C)=NOC(=O)N(C)S(=O)OCc1cccnc1 (stereo not shown) [III, S-methyl N-[N'-methyl-N'-(3-pyridylmethoxy)sulfinylcarbamoyloxy]-thioacetimidate] | low | 85 | 100 | 5.8 | 96 |  | good toxicity
5 | CC(C)c1cccc(OC(=O)N(C)S(=O)OCc2ccccn2)c1 (stereo not shown) [IX, 3-Isopropylphenyl N-(2-pyridylmethoxysulfinyl)-N-methylcarbamate] | substantially lower mammalian toxicity |  |  | 111.5 | 105 |  | good toxicity
